# Like-named read-outs stand apart in the source and are kept apart here. Marks after values point to notes of the source that are not given here.
# What was measured:
# thymic cells = test: Expression of T-cell subpopulation and activation markers (CD69, CD25) on thymic cells, flow cytometry; type: in vivo, mice; details: for CD25-positive cells, % / CD69-positive, %: thymic cells cultured in vitro 48 hours
# From the text: Materials and Methods: Eighteen (18) to twenty (20) gram (g) male mice, purchased from the Rappolovo Animal Facility, Russia, were used in the studies described below. C57BL/6 (B6) mice were used to evaluate the effect of SCV-07 in non-immunized mice. CBAxC57BL/6 (F1) mice were used for studies of the effects of SCV-07 on the antigen-specific immune response. Mice were kept under the standard animal facility conditions and were provided with a standard diet and water ad libitum. Each treatment group included 4-5 mice. […] Analysis by Flow Cytometry: […] The expression of T-cell subpopulation markers (CD3, CD4, and CD8) and activation markers (CD69 and CD25) on thymic cells and splenocytes was studied ex vivo 72 hours after the last treatment with SCV-07. […] The expression of the CD69 marker increased after oral administration of SCV-07 tablets at doses of 0.1 and 1.0 μg/kg of body mass as well as after i/p administration at a dose of 1.0 μg/kg.
# [1] = tested on: IL-2 production by ConA-stimulated thymic cells; test: IL-2 production by ConA-stimulated thymic cells (IL-2-dependent CTLL-2 bioassay); type: in vivo, mice
# From the text: Considering that significant enhancement of proliferation by SCV-07 might be due to its influence on IL-2 production, IL-2 activity was studied with the IL-2-dependent CTLL-2 line.
# splenocytes = test: OvA-induced proliferation of splenocytes of OvA-immunized mice; type: in vivo; details: for Proliferation of splenocytes, Spontaneous, cpm, M ± SD / Proliferation of splenocytes, SI / Proliferation of splenocytes, cpm, M ± SD: OvA/FA
# Description: Assessment of Mitogen- and Antigen-Induced Proliferation: […] Antigen-specific proliferation was studied by stimulating thymocytes and splenoctyes in vitro with different concentrations of OvA for 96 h. Twenty (20) to twenty-four (24) hours prior to completion of incubation, 3H-labeled thymidine (5 μCi/ml) was added to the cells. The cells were then transferred to fiberglass filters with a Titertek® semi-automatic cell harvester. Thymidine uptake was measured using a RackBeta 1217 (Wallac) liquid scintillation β-counter. For quantitative analysis of proliferation, the stimulation index (SI) was calculated as a ratio of the intensity of label inclusion in the stimulated cells to that in non-stimulated cells.
# HBsAg = type: in vivo, human; details: for Antibodies to HBsAg not detected, % / Antibodies to HBsAg not detected, Abs / Protective titer against HBsAg (>10 mMU/mL), % / Protective titer against HBsAg (>10 mMU/mL), Abs: one month after the end of vaccination; for concentration of antibodies to HBsAg in the blood: one month after immunization
# [2] = 10.0 μg/kg per os, OvA 10 μg/ml
# [3] = 10.0 μg/kg per os, OvA 50 μg/ml
smiles,measurement,setting,value
"N[C@H](CCC(=O)N[C@@H](Cc1c[nH]c2ccccc12)C(=O)O)C(=O)O [SCV-07, γ-D-glutamyl-L-tryptophan]",subpopulation composition of T-cells and expression of their activation markers,"thymic cells; thymic cells and splenocytes ex vivo 72 hours after the last treatment, i/p or per os, data not shown",No significant differences
same,"CD25-positive cells, %","thymic cells; 0.1 μg/kg Tablet, per os",0.7%
same,"CD69-positive, %","thymic cells; 0.1 μg/kg Tablet, per os",3.35%
same,"CD25-positive cells, %",thymic cells; 0.1 μg/kg i/p,0.30%
same,"CD69-positive, %",thymic cells; 0.1 μg/kg i/p,2.03%
same,"CD25-positive cells, %","thymic cells; 1.0 μg/kg Tablet, per os",0.79%
same,"CD69-positive, %","thymic cells; 1.0 μg/kg Tablet, per os",4.61%
same,"CD25-positive cells, %",thymic cells; 1.0 μg/kg i/p,1.72%
same,"CD69-positive, %",thymic cells; 1.0 μg/kg i/p,7.86%
same,"CD25-positive cells, %","thymic cells; 10.0 μg/kg Tablet, per os",0.71%
same,"CD69-positive, %","thymic cells; 10.0 μg/kg Tablet, per os",2.24%
same,"IL-2 production (U/ml), M ± SD","[1]; ConA 1 μg/ml, 0.01 μg/kg per os",0.00 ± 0.00 U/ml
same,"IL-2 production (U/ml), M ± SD","[1]; ConA 1 μg/ml, 0.1 μg/kg i/p",0.25 ± 0.08 U/ml
same,"IL-2 production (U/ml), M ± SD","[1]; ConA 1 μg/ml, 0.1 μg/kg per os",0.10 ± 0.13 U/ml
same,"IL-2 production (U/ml), M ± SD","[1]; ConA 1 μg/ml, 1.0 μg/kg i/p",0.92 ± 0.06 U/ml
same,"IL-2 production (U/ml), M ± SD","[1]; ConA 1 μg/ml, 1.0 μg/kg per os",1.06 ± 0.37 U/ml
same,"IL-2 production (U/ml), M ± SD","[1]; ConA 1 μg/ml, 10.0 μg/kg per os",0.25 ± 0.12 U/ml
same,"IL-2 production (U/ml), M ± SD","[1]; ConA 1 μg/ml, 100.0 μg/kg per os",0.31 ± 0.15 U/ml
same,"IL-2 production (U/ml), M ± SD","[1]; ConA 2 μg/ml, 0.01 μg/kg per os",0.44 ± 0.11 U/ml
same,"IL-2 production (U/ml), M ± SD","[1]; ConA 2 μg/ml, 0.1 μg/kg i/p",1.40 ± 0.38 U/ml
same,"IL-2 production (U/ml), M ± SD","[1]; ConA 2 μg/ml, 0.1 μg/kg per os",1.00 ± 0.13 U/ml
same,"IL-2 production (U/ml), M ± SD","[1]; ConA 2 μg/ml, 1.0 μg/kg i/p",1.60 ± 0.15 U/ml
same,"IL-2 production (U/ml), M ± SD","[1]; ConA 2 μg/ml, 1.0 μg/kg per os",3.31 ± 0.01 U/ml
same,"IL-2 production (U/ml), M ± SD","[1]; ConA 2 μg/ml, 10.0 μg/kg per os",0.39 ± 0.12 U/ml
same,"IL-2 production (U/ml), M ± SD","[1]; ConA 2 μg/ml, 100.0 μg/kg per os",1.19 ± 0.30 U/ml
same,proliferation of splenocytes versus control group,"splenocytes; OvA/Alum, data not shown",No significant differences
same,"Proliferation of splenocytes, Spontaneous, cpm, M ± SD",splenocytes; 0.1 μg/kg i/p,10726 ± 1947 cpm
same,"Proliferation of splenocytes, SI","splenocytes; 0.1 μg/kg i/p, OvA 10 μg/ml",1.09
same,"Proliferation of splenocytes, cpm, M ± SD","splenocytes; 0.1 μg/kg i/p, OvA 10 μg/ml",11683 ± 2285 cpm
same,"Proliferation of splenocytes, SI","splenocytes; 0.1 μg/kg i/p, OvA 50 μg/ml",1.32
same,"Proliferation of splenocytes, cpm, M ± SD","splenocytes; 0.1 μg/kg i/p, OvA 50 μg/ml",14195 ± 3304 cpm
same,"Proliferation of splenocytes, Spontaneous, cpm, M ± SD",splenocytes; 0.1 μg/kg per os,8786 ± 1259 cpm
same,"Proliferation of splenocytes, SI","splenocytes; 0.1 μg/kg per os, OvA 10 μg/ml",1.29
same,"Proliferation of splenocytes, cpm, M ± SD","splenocytes; 0.1 μg/kg per os, OvA 10 μg/ml",11304 ± 1317 cpm
same,"Proliferation of splenocytes, SI","splenocytes; 0.1 μg/kg per os, OvA 50 μg/ml",1.36
same,"Proliferation of splenocytes, cpm, M ± SD","splenocytes; 0.1 μg/kg per os, OvA 50 μg/ml",11923 ± 1623 cpm
same,"Proliferation of splenocytes, Spontaneous, cpm, M ± SD",splenocytes; 1.0 μg/kg i/p,9760 ± 1650 cpm
same,"Proliferation of splenocytes, SI","splenocytes; 1.0 μg/kg i/p, OvA 10 μg/ml",1.05
same,"Proliferation of splenocytes, cpm, M ± SD","splenocytes; 1.0 μg/kg i/p, OvA 10 μg/ml",10260 ± 2808 cpm
same,"Proliferation of splenocytes, SI","splenocytes; 1.0 μg/kg i/p, OvA 50 μg/ml",1.67
same,"Proliferation of splenocytes, cpm, M ± SD","splenocytes; 1.0 μg/kg i/p, OvA 50 μg/ml",16313 ± 1057 cpm
same,"Proliferation of splenocytes, Spontaneous, cpm, M ± SD",splenocytes; 1.0 μg/kg per os,7013 ± 1698 cpm
same,"Proliferation of splenocytes, SI","splenocytes; 1.0 μg/kg per os, OvA 10 μg/ml",1.26
same,"Proliferation of splenocytes, cpm, M ± SD","splenocytes; 1.0 μg/kg per os, OvA 10 μg/ml",8864 ± 2675 cpm
same,"Proliferation of splenocytes, SI","splenocytes; 1.0 μg/kg per os, OvA 50 μg/ml",1.49
same,"Proliferation of splenocytes, cpm, M ± SD","splenocytes; 1.0 μg/kg per os, OvA 50 μg/ml",10457 ± 1740 cpm
same,"Proliferation of splenocytes, Spontaneous, cpm, M ± SD",splenocytes; 10.0 μg/kg per os,10665 ± 887 cpm
same,"Proliferation of splenocytes, SI",splenocytes; [2],1.27
same,"Proliferation of splenocytes, cpm, M ± SD",splenocytes; [2],13585 ± 1102 cpm
same,"Proliferation of splenocytes, SI",splenocytes; [3],1.21
same,"Proliferation of splenocytes, cpm, M ± SD",splenocytes; [3],12903 ± 881 cpm
same,"Antibodies to HBsAg not detected, %","HBsAg; Group 2, SCV-07, n = 32",3.1** %
same,"Antibodies to HBsAg not detected, Abs","HBsAg; Group 2, SCV-07, n = 32",1
same,"Protective titer against HBsAg (>10 mMU/mL), %","HBsAg; Group 2, SCV-07, n = 32",96.9%
same,"Protective titer against HBsAg (>10 mMU/mL), Abs","HBsAg; Group 2, SCV-07, n = 32",31
same,"Antibodies to HBsAg not detected, %","HBsAg; Group 3, healthy, n = 33",6.1* %
same,"Antibodies to HBsAg not detected, Abs","HBsAg; Group 3, healthy, n = 33",2
same,"Protective titer against HBsAg (>10 mMU/mL), %","HBsAg; Group 3, healthy, n = 33",93.9%
same,"Protective titer against HBsAg (>10 mMU/mL), Abs","HBsAg; Group 3, healthy, n = 33",31
same,concentration of antibodies to HBsAg in the blood,HBsAg; healthy subjects (Group III),253.6 MU/L
same,concentration of antibodies to HBsAg in the blood,HBsAg; immunodeficient patients who received SCV-07 at the time of vaccination,263.3 MU/L

# From US20090074815A1, “Immunomodulator Compounds as Vaccine Enhancers” (SCICLONE PHARMACEUTICALS, INC., priority 2005, published 2009)
